# Experimental data reported in ChEMBL document CHEMBL5584294, “Adpressins A-G: Oligophenalenone Dimers from Talaromyces adpressus” (J Nat Prod, 2024).
# Tests used:
# B-cell line = assay: Immunosuppressive activity in BALB/c mouse B-lymphocytes assessed as inhibition of LPS-induced cell proliferation pretreated with LPS for 24 hrs followed by compound addition and measured after 48 hrs by CCK-8 assay; type: functional, cell-based
# T-cell [1] = assay: Immunosuppressive activity in BALB/c mouse T-lymphocytes assessed as inhibition of ConA-induced cell proliferation pretreated with Concanavalin A for 24 hrs followed by compound addition and measured after 48 hrs by CCK-8 assay; type: functional, cell-based
# T-cell [2] = assay: (§1) Immunosuppressive activity in BALB/c mouse T-lymphocytes assessed as reduction in ConA-induced CD4 subpopulation by measuring CD3negativeCD4negative cells at 5 uM pretreated with Concanavalin A for 24 hrs followed by compound addition and measured after 48 hrs by flow cytometry analysis (reference value: 0%); type: functional; set-up: scale not given: the % may be the effect or the level left
# T-cell [3] = assay: as §1, with “CD3positiveCD4negative” for “CD3negativeCD4negative”, “12.2%)” for “0%)”; type: functional; set-up: scale not given: the % may be the effect or the level left
# T-cell [4] = assay: as §1, with “CD3positiveCD4positive” for “CD3negativeCD4negative”, “87.8%)” for “0%)”; type: functional; set-up: scale not given: the % may be the effect or the level left
# T-cell [5] = assay: as §1, with “CD3negativeCD4positive” for “CD3negativeCD4negative”; type: functional; set-up: scale not given: the % may be the effect or the level left
# T-cell [6] = assay: as §1, with “CD8” for “CD4”, “CD3negativeCD8negative” for “CD3negativeCD4negative”; type: functional; set-up: scale not given: the % may be the effect or the level left
# T-cell [7] = assay: as §1, with “CD8” for “CD4”, “CD3positiveCD8negative” for “CD3negativeCD4negative”, “70.9%)” for “0%)”; type: functional; set-up: scale not given: the % may be the effect or the level left
# T-cell [8] = assay: as §1, with “CD8” for “CD4”, “CD3positiveCD8positive” for “CD3negativeCD4negative”, “29.1%)” for “0%)”; type: functional; set-up: scale not given: the % may be the effect or the level left
# T-cell [9] = assay: as §1, with “CD8” for “CD4”, “CD3negativeCD8positive” for “CD3negativeCD4negative”; type: functional; set-up: scale not given: the % may be the effect or the level left
# T-cell [10] = assay: (§2) Immunosuppressive activity in ConA-induced BALB/c mouse T-lymphocytes assessed as Treg cell subsets by measuring CD25negativeFOXP3negative cells at 5 uM pretreated with Concanavalin A for 24 hrs followed by compound addition and measured after 48 hrs by flow cytometry analysis (reference value: 27.2%); type: functional
# T-cell [11] = assay: as §2, with “CD25positiveFOXP3negative” for “CD25negativeFOXP3negative”, “66.9%)” for “27.2%)”; type: functional
# T-cell [12] = assay: as §2, with “CD25positiveFOXP3positive” for “CD25negativeFOXP3negative”, “5.7%)” for “27.2%)”; type: functional
# T-cell [13] = assay: as §2, with “CD25negativeFOXP3positive” for “CD25negativeFOXP3negative”, “0.2%)” for “27.2%)”; type: functional
# T-cell [14] = assay: as §1, with “2.5” for “5”; type: functional; set-up: scale not given: the % may be the effect or the level left
# T-cell [15] = assay: as §1, with “CD3positiveCD4negative” for “CD3negativeCD4negative”, “2.5” for “5”, “12.2%)” for “0%)”; type: functional; set-up: scale not given: the % may be the effect or the level left
# T-cell [16] = assay: as §1, with “CD3positiveCD4positive” for “CD3negativeCD4negative”, “2.5” for “5”, “87.8%)” for “0%)”; type: functional; set-up: scale not given: the % may be the effect or the level left
# T-cell [17] = assay: as §1, with “CD3negativeCD4positive” for “CD3negativeCD4negative”, “2.5” for “5”; type: functional; set-up: scale not given: the % may be the effect or the level left
# T-cell [18] = assay: as §1, with “CD8” for “CD4”, “CD3negativeCD8negative” for “CD3negativeCD4negative”, “2.5” for “5”; type: functional; set-up: scale not given: the % may be the effect or the level left
# T-cell [19] = assay: as §1, with “CD8” for “CD4”, “CD3positiveCD8negative” for “CD3negativeCD4negative”, “2.5” for “5”, “70.9%)” for “0%)”; type: functional; set-up: scale not given: the % may be the effect or the level left
# T-cell [20] = assay: as §1, with “CD8” for “CD4”, “CD3positiveCD8positive” for “CD3negativeCD4negative”, “2.5” for “5”, “29.1%)” for “0%)”; type: functional; set-up: scale not given: the % may be the effect or the level left
# T-cell [21] = assay: as §1, with “CD8” for “CD4”, “CD3negativeCD8positive” for “CD3negativeCD4negative”, “2.5” for “5”; type: functional; set-up: scale not given: the % may be the effect or the level left
# T-cell [22] = assay: as §2, with “at 2.5” for “at 5”; type: functional
# T-cell [23] = assay: as §2, with “CD25positiveFOXP3negative” for “CD25negativeFOXP3negative”, “2.5” for “5”, “66.9%)” for “27.2%)”; type: functional
# T-cell [24] = assay: as §2, with “CD25positiveFOXP3positive” for “CD25negativeFOXP3negative”, “2.5” for “5”, “5.7%)” for “27.2%)”; type: functional
# T-cell [25] = assay: as §2, with “CD25negativeFOXP3positive” for “CD25negativeFOXP3negative”, “2.5” for “5”, “0.2%)” for “27.2%)”; type: functional
smiles,measurement,setting,value
Cc1cc(O)c2c3c1C(=O)[C@@H]1C4=C(C(=O)c5cn(CCO)c(=O)c6c(O)cc(C)c4c56)[C@@]3(COC2=O)[C@H]1O,IC50,B-cell line,> 40 µM
same,IC50,T-cell [1],> 40 µM
Cc1cc(O)c2c3c1C(=O)[C@@H]1c4c(c(O)c5c6c(c(O)cc(C)c46)C(=O)OC5=O)[C@@]3(COC2=O)[C@H]1O,IC50,B-cell line,> 40 µM
same,IC50,T-cell [1],> 40 µM
COC(=O)CCCn1cc2c3c(c(C)cc(O)c3c1=O)C1=C(C2=O)[C@]23COC(=O)c4c(O)cc(C)c(c42)C(=O)[C@H]1[C@@H]3OC(C)=O,IC50,B-cell line,1.6 µM
same,IC50,T-cell [1],2.6 µM
same,Activity,T-cell [2],0%
same,Activity,T-cell [3],0%
same,Activity,T-cell [4],22.3%
same,Activity,T-cell [5],77.7%
same,Activity,T-cell [6],0%
same,Activity,T-cell [7],69.9%
same,Activity,T-cell [8],30.1%
same,Activity,T-cell [9],0%
same,Activity,T-cell [10],20.8%
same,Activity,T-cell [11],75.4%
same,Activity,T-cell [12],3.3%
same,Activity,T-cell [13],0.4%
same,Activity,T-cell [14],0%
same,Activity,T-cell [15],16.8%
same,Activity,T-cell [16],83.2%
same,Activity,T-cell [17],0%
same,Activity,T-cell [18],0%
same,Activity,T-cell [19],68.6%
same,Activity,T-cell [20],31.4%
same,Activity,T-cell [21],0%
same,Activity,T-cell [22],18.1%
same,Activity,T-cell [23],78.3%
same,Activity,T-cell [24],3.5%
same,Activity,T-cell [25],0.1%
CC(=O)O[C@H]1[C@@H]2C(=O)c3c(C)cc(O)c4c3[C@@]1(COC4=O)c1c(O)c3c4c(c(O)cc(C)c4c12)C(=O)O3,IC50,B-cell line,> 40 µM
same,IC50,T-cell [1],> 40 µM
COC(=O)C[C@H]1OC(=O)c2c(O)cc(C)c3c4c(c(O)c1c23)[C@]12COC(=O)c3c(O)cc(C)c(c31)C(=O)[C@H]4[C@@H]2OC(C)=O,IC50,B-cell line,> 40 µM
same,IC50,T-cell [1],> 40 µM
COC(=O)C[C@H]1OC(=O)c2c(O)cc(C)c3c2C1=C(O)C1[C@]24COC(=O)c5c(O)cc(C)c(c52)C(=O)[C@@H]([C@@H]4OC(C)=O)[C@]31OC (some centres not stated),IC50,B-cell line,> 40 µM
same,IC50,T-cell [1],> 40 µM
Cc1cc(O)c2c3c1C(=O)[C@@H]1c4c(c5oc(=O)ccc5c5cc(O)cc(C)c45)[C@@]3(COC2=O)[C@H]1O,IC50,B-cell line,> 40 µM
same,IC50,T-cell [1],> 40 µM
Cc1cc(O)c2c3c1C(=O)[C@@H]1c4c(c(O)c5c6c(c(O)cc(C)c46)C(=O)O5)[C@@]3(COC2=O)[C@H]1O,IC50,B-cell line,> 40 µM
same,IC50,T-cell [1],> 40 µM
Cc1cc(O)c2c3c1C(=O)[C@@H]1c4c(c(O)cc5cc(O)cc(C)c45)[C@@]3(COC2=O)[C@H]1O,IC50,B-cell line,> 40 µM
same,IC50,T-cell [1],> 40 µM
